According to US6372493B1, “Hormone-secreting cells maintained in long-term culture” (Pacific Biomedical Research, Inc. [Cell Mart, Inc.], priority 1991, dated 2002):

Tests used:
[1] = system: pancreas cells in long-term culture; experiment: Glucose-stimulated insulin secretion, pancreas cells generation 47, frozen/thawed or not (Example 17); assay type: cell-based, human
Method: The pancreas cell cultures described in Example 16 were passaged approximately every 3-5 days through generation 47. Passaging was done by placing 0.5-1.0 ml of cell suspension into 10 ml fresh medium in a flask. Each flask was flooded with medical blood gas mixture (supra), sealed, and maintained in an incubator at 37° C. Typically, each flask was flooded with fresh gas every other day. At passage 47, the cells had been in continuous culture for 9.5 months.
A portion of the pancreas cells at generation 47 were frozen according to the method described in Example 15 using cryopreservative A. The cells were stored frozen for 1 day, after which they were thawed according to the method described in Example 15.
The thawed cells and cells from generation 47 which had not been frozen were placed in DMSS medium and centrifuged at 1070 rpm for 5 minutes. The pellets were washed and resuspended in 30 ml of Medium PDM (Dulbecco's salt solution, phosphate buffered, with MgSO4 (no MgCl2), plus 2% BSA Fraction V), final osmolality adjusted to 272 mOsm) at 37°.
The cells were incubated 30 minutes at 37°, then centrifuged and resuspended as above. Cell count and viability were determined by Trypan blue exclusion.
The cells were then centrifuged and resuspended in a base medium consisting of 3 parts Medium PDM (supra) and 1 part DMSS, as defined in Example 6 above.

[2] = system: cultured pancreatic islet cells (daughter-islets); experiment: Immunofluorescence for insulin after BUDR labelling and glucose stimulation (Example 23); assay type: cell-based, human; conditions: 12 mM glucose 6 hours
Method: The tests were done on the same long term cultured daughter-islets described in Example 22, after 3 months of culture (8 passage generations) and after 8 months of cell culture (16 passage generations). Cultures of the daughter-islets were exposed to 30 μgm/ml BUDR for 5 days. The cultures were then placed in normal culture medium (OCZEM-M) for another 5 days. Cultures were then given the same glucose poor basal medium described in Formula VI for 4 hours. Subsequently medium containing 12 mM glucose, described in Example 22, was provided for 6 hours. Cells were immediately fixed and prepared for immunofluorescence. A FITC conjugated secondary antibody to detect BUDR incorporation during DNA synthesis and a TRITC conjugated secondary antibody to detect insulin synthesis in response to glucose stimulation were used according to the following protocol.
d. Cell preparation used procedures to swell the nucleus and preferentially fix the chromosomes in order to maximize the ability to detect BUDR incorporation. The procedures are commonly used to prepare human embryonic cells for florescence in situ hybridization (FISH).
9. Primary antibodies were added, 100 ul @ and the slides were incubated in a moist chamber for 18 hours at 20° C.
11. Secondary antibodies were added to EVERY slide (including the negative controls) in very dim light, 100 ul @ and then the slides were incubated in the dark for 60 minutes at room temperature.
16. After 24 hours the preparations were photographed with Kodak Ektar 100 using Zeiss optics and fluorescence filters (No 2 for Hoechst, No 9 for FITC and No 15 for TRITC).

In the case of `O=C[C@H](O)[C@@H](O)[C@H](O)[C@H](O)CO` [glucose, D(+)glucose], the Insulin secreted ([1]; pg 47, glucose total 1 mM, 1.5 or 3 hours) is reported as 92 μIU insulin secreted/ml/10,000, the Insulin secreted ([1]; pg 47, glucose total 2 mM) is reported as 100 μIU insulin secreted/ml/10,000 and the Insulin secreted ([1]; pg 47, glucose total 6 mM) is reported as 111 μIU insulin secreted/ml/10,000. The Insulin secreted ([1]; pg 47, glucose total 11 mM) was 117 μIU insulin secreted/ml/10,000, the Insulin secreted ([1]; pg 47, glucose total 16 mM) was 129 μIU insulin secreted/ml/10,000 and the Insulin secreted ([1]; pg 47, glucose total 21 mM) was 116 μIU insulin secreted/ml/10,000. The Insulin secreted ([1]; pg47 frozen/thawed, glucose total 1 mM) was 99 μIU insulin secreted/ml/10,000, the Insulin secreted ([1]; pg47 frozen/thawed, glucose total 2 mM) was 105 μIU insulin secreted/ml/10,000 and the Insulin secreted ([1]; pg47 frozen/thawed, glucose total 6 mM) was 114 μIU insulin secreted/ml/10,000. For the same compound, the Insulin secreted ([1]; pg47 frozen/thawed, glucose total 11 mM) was 128 μIU insulin secreted/ml/10,000, the Insulin secreted ([1]; pg47 frozen/thawed, glucose total 16 mM) was 125 μIU insulin secreted/ml/10,000 and the Insulin secreted ([1]; pg47 frozen/thawed, glucose total 21 mM) was 124 μIU insulin secreted/ml/10,000. The Insulin positive ([2]; 8th passage generation (3 mo. culture)) was 86%, the “Insulin positive (number of cells)” value ([2]; 8th passage generation (3 mo. culture), 204 cells analyzed) was 175 and the Insulin positive ([2]; 16th passage generation (8 mos. culture)) was 90%. For the same compound, the “Insulin positive (number of cells)” value ([2]; 16th passage generation (8 mos. culture), 187 cells analyzed) was 168.
